Data set [1] concerns p53DsRed reporter in PG3/9 melanoma cells (A375 clone). The data set can be described thus: p53DsRed reporter activation assay (in vitro p53 activity assay). The class given is cell-based. Particulars: for pEC50: Homo sapiens, A-375, PG3/9 melanoma cells, 24 hours, read-out: effective concentration (EC50), p53DsRed reporter activation. The method, then:
The ability of the compounds to activate p53 was analyzed using a cell-based assay. To establish the assay, a stable cell transfectant expressing a p53-responsive reporter was generated. A375 melanoma cell line (ATCC CRL-1619) was transfected with a vector containing the p53 consensus element 13x repeat (13XRE) (Kern et al., 1991) cloned to a DsRed Express reporter vector (Clontech) to yield the vector “PG13DsRed”, hereafter termed as “p53DsRed”. […] The cell clone PG3/9 was used in the screen.
The assay was carried out in a 96-well format and all plate handlings were done using liquid handling robots (Thermo CRS, Thermo Electron Corporation; Biomek FX, Beckman Coulter and Hamilton STAR, Hamilton Microlab). Cells were plated at 10,000 cells/100 μL/well onto 96-well ViewPlates (Packard) and incubated overnight at +37° C. and 5% CO2. Small molecule compound chemical libraries were purchased and diluted to dimethylsulfoxide (DMSO) at 10 mM concentration. The compounds were pin-transferred to plain media at approximately 3 μM concentration either as single (one compound/one well) or pools of compounds (two compounds/one well). The growth media was removed and replaced with media with the test compounds followed by incubation of the cells for 24 h at +37° C. and 5% CO2. […] Following the incubation, the cells were washed with phosphate buffered saline and fixed with paraformaldehyde (PFA, 4%, 25 min, RT) and cell nuclei were stained with Hoechst 33342 (Molecular Probes, 4 μg/mL, 2 min, RT).
The fluorescence signals of Hoechst 33342 and DsRed reporter expression in the fixed cells were analyzed using ArrayScan 4.5 high-content screening platform (Cellomics) including an inverted microscope (Zeiss 200M) with 10× objective (Zeiss), Omega XF93 filter (Omega), ORCA-AG CCD camera (Hamamatsu). The algorithm used for image acquisition and analysis was Target Activation Bioapplication (Cellomics), which was set to analyse the total number of cells and the percentage of p53 reporter positive cells termed as “responders”. For each well, four images on both fluorescence channels were acquired corresponding to approximately 1700 cells in mock-treated wells. The mean number of responders was calculated for each well, and compounds causing reporter activation for more than two times the mean number of responders in the mock treated cells in each plate were regarded as hits.
In the secondary screen the hits were collected and tested over 100 nM to 10 μM concentration range. The compound treatment time, cell fixations and stainings as well as fluorescence signal detection was as described above. Compounds providing consistent p53DsRed reporter activation at low μM concentration range were selected for further testing. The effective concentration 50 (EC50) was calculated using the following formula: […]

Data set [2] relates to A375 melanoma (WTp53). The data set can be described thus: WST-1 cell viability assay, A375. Particulars: Homo sapiens, A-375, 72 h; A375 melanoma (WTp53), three days, WST-1. It is filed as cell-based. The method, then: (§1) The effect of the compounds selected using the screening assay on the viability of several tumor cell lines as well as diploid cell lines and cell strains was studied. Cells were plated in 96-well plates at a density of 10,000 cells/100 μL/well and were incubated overnight. The following day compound dilutions ranging from 0 to 40 μM were applied to the cells in triplicate and the cells were incubated with the compounds for three days. Cell viability was assayed using the WST-1 cell proliferation reagent (Roche Diagnostics, Germany) The WST-1 reagent was diluted 1:10 in cell culture media and 100 μL of the reagent dilution was applied onto cells followed by 1 hour incubation at +37° C. The specific absorbance was measured at 450 nm and a reference absorbance was measured at 690 nm. […] Analysis for Protein Levels

Data set [3] deals with WS-1 diploid fibroblast. The data set can be described thus: WST-1 cell viability assay, WS-1. It is filed as cell-based, human. As to conditions: Homo sapiens, 72 h, three days. The method, then:
as §1
For orientation: Formazan colour is commonly taken as a measure of viable cells.

Data set [4] is described as follows: In vivo toxicity tests. As to conditions: mice; for toxicity by weight curves, macroscopical pathologies, hematoxylin-eosin staining of tissues: 9 doses/3 weeks. On the procedure: Acute and chronic toxicity of the compounds was tested on FVB/N mice. Female mice of 4-6 weeks old were purchased from Harlan and 2 animals were used per compound dose. The mice were injected intraperitoneally with the compounds three times a week for three weeks in 30 microL DMSO. Two animals received vehicle only (=30 μL DMSO). The animals were weighed prior to injections and were monitored for any signs of toxicity, distress or unusual behaviour. The animals were sacrificed three days after receiving the final injection. The liver, kidney, spleen, small intestine and thymus were excised and fixed in 4% paraformaldehyde overnight, and processed into paraffin-blocks. Haematoxylin-eosin staining (HE staining) of the tissues was performed using standard immunohistological techniques.

pEC50, pIC50: −log10 of the molar value.

For the compound `CN(C)CCNC(=O)c1cccn2c(=O)c3cc4ccccc4cc3nc12` [Compound 21], in data set [1], the pEC50 is 6.52. The figures for the pIC50 in data set [2] and in data set [3] were 6.15 and 5.72, respectively. The “acute or chronic toxicities based on histological HE-stainings” value in data set [4] (i.p., 0.5, 1, 2 mg/kg three times a week for three weeks) was “No acute or chronic toxicities were observed”. The “toxicity by weight curves, macroscopical pathologies, hematoxylin-eosin staining of tissues” value in data set [4] (i.p., 0.5, 1, 2 mg/kg) was “did not show any apparent toxicity”.
As to `Cc1cc(C)c2nc3nc(C)cc(C)c3c(N)c2c1` [Compound 22, 2,4,7,9-tetramethylbenzo[b]-1,8-naphthyridin-5-amine], the pEC50 in data set [1] is 5.59. Also, the “fraction of p53-reporter activated cells at high concentrations” value in data set [1] (high concentrations, apparently due to excessive cell death) is “decrease in the fraction of p53-reporter activated cells”. Moreover, the pIC50 is 5.34 in data set [2] and 4.94 in data set [3]. In addition, the “acute or chronic toxicities based on histological HE-stainings” value in data set [4] (i.p., 5, 10 and 20 mg/kg three times a week for three weeks) is listed as “No acute or chronic toxicities were observed”. Besides, in data set [4] (i.p., 5, 10 and 20 mg/kg), the “toxicity by weight curves, macroscopical pathologies, hematoxylin-eosin staining of tissues” value is on record as “did not show any apparent toxicity”.

A word on the pIC50: it is −log10 of the IC50, conventionally taken in molar units.
